What all share (assay type): cell-based
Test [1] deals with T-Rex 293 cells having increased expression of estrogen receptor alpha protein. Briefly: Cellular growth inhibition assay, T-Rex 293 cells, (+) doxycycline. To be noted: T-REx-293, 72 h, 72 hours. How it is done:
(§1) Exemplary compounds were tested for the ability to inhibit the proliferation of the following types of cells: (i) a T-Rex 293 cell line having increased expression of estrogen receptor alpha protein from exposure to doxycycline and (ii) a T-Rex 293 cell line lacking increased expression of estrogen receptor alpha protein.
(§2) The following types of cells were prepared for this experiment: (i) a T-Rex 293 cell line having increased expression of estrogen receptor alpha protein from exposure to doxycycline and (ii) a T-Rex 293 cell line lacking increased expression of estrogen receptor alpha protein. The ability of the test compounds to inhibit proliferation of the foregoing cell types was evaluated according to the procedures set forth below.
(§3) The doxycycline-inducible estrogen receptor alpha protein expressing cell line was established using the following protocol: T-Rex 293 cells were purchased from Invitrogen (Cat #R71007) and transfected using Lipofectamine 2000 with the wild-type estrogen receptor alpha protein sequence cloned into the pcDNA4/TO vector. Transfected cells were selected using 400 μg/mL Zeocin (Invitrogen Cat #R25001). Following selection, single clones were raised and maintained in Dulbecco's Modified Eagle Medium (DMEM) supplemented with 10% w/w Tetracycline-free fetal bovine serum (FBS) and 250 μg/mL Zeocin. Clones were analyzed for expression of estrogen receptor alpha protein in the presence and absence of 3 ng/mL doxycycline (Sigma Cat #D9891), and a single doxycycline-inducible clone (hereinafter “SC”) was selected for use in downstream assays.
(§4) The SC cells were seeded on poly-D-lysine coated, black clear-bottom 384-well plates at 2500/well, in 25 μL Phenol Red Free Dulbecco's Modified Eagle Medium (DMEM) supplemented with 10% w/w charcoal-dextran treated fetal bovine serum (FBS) and 1% w/w pen-strep, with or without 3 ng/mL doxycycline. Pen-Strep is a commercially available mixture of penicillin G and streptomycin, which is used in mammalian cell culture media to prevent bacterial contamination. Phenol Red Free Dulbecco's Modified Eagle Medium (DMEM) supplemented with 10% w/w charcoal-dextran treated fetal bovine serum (FBS) and 1% w/w pen-strep, with or without 3 ng/mL doxycycline is herein referred to as Treatment Medium. Following seeding of cells in the plates, the plates were spun at 300×g for 30 seconds, then equilibrated to room temperature for 30 minutes, and then deposited in a humidified tissue culture incubator maintained at 37° C. with 5% CO2.
(§5) At 24 hours after seeding of the cells, dilutions of test compound were prepared in DMSO and dissolved in Treatment Medium, to achieve a final DMSO concentration of 0.5% w/w, thereby providing the Test Compound Solution. A 25 μL aliquot of the Test Compound Solution was added to cells in the well plates. An equal volume of a solution containing DMSO and Treatment Medium was used as a negative control. Following treatment of cells with Test Compound Solution or said equal volume of a solution containing DMSO and Treatment Medium, the plates were spun at 300×g for 30 seconds, and then left in an incubator for 72 hours.
(§6) At the end of the treatment duration, cell viability was quantified with CellTiter-Glo 2.0 reagent (Promega Cat #G9243). For this purpose, plates were equilibrated to room temperature for 30 minutes, and then 25 μL of CellTiter-Glo 2.0 reagent was added to cells in the plate wells. Plates were then agitated on a shaker for two minutes at 500 rpm and subsequently incubated at room temperature for 10 minutes. Following incubation, the plates were spun at 3000×g for 30 seconds, then sealed with an optical adhesive cover, and luminescence readings were measured with an EnVision Plate Reader (Perkin Elmer).
(§7) Data was normalized using zero luminescence for baseline. […]

The test system of test [2] is T-Rex 293 cells lacking increased expression of estrogen receptor alpha protein. Briefly: Cellular growth inhibition assay, T-Rex 293 cells, (−) doxycycline. To be noted: T-REx-293, 72 h, 72 hours. As for the experimental part: as §1, §2, §3, §4, §5, §6, §7
The test system of test [3] is MCF7 cells (ATCC #HTB-22). Kind of test: Cellular growth inhibition assay, MCF7 cells purchased from ATCC. The conditions noted are these: Homo sapiens, MCF7, 144 h, Table 8-A; MCF7 cells purchased from ATCC; six days; CellTiter-Glo; read-out: GI50. How it is done: Exemplary compounds were tested for the ability to inhibit the proliferation of MCF7 cells.
MCF7 cells (ATCC #HTB-22 or ECACC #86012803) were cultured in RPMI 1640 medium supplemented with 10% heat-inactivated fetal bovine serum, 1% pen-strep, and 0.2 U/ml insulin. Cells were seeded in 25 μL of RPMI 1640 medium supplemented with 10% heat-inactivated fetal bovine serum, 1% pen-strep, 0.2 U/ml insulin in poly-D-lysine treated, black clear-bottom 384-well plates at 225 cells/well for MCF7 cells purchased from ECACC or 1,500 cells/well for MCF7 cells purchased from ATCC. Following seeding, plates were spun at 300×g for 30 seconds and cultured at 37° C. with 5% CO2 in a humidified tissue culture incubator.
At 24 hours after seeding, compounds were titrated in 100% DMSO and diluted in RPMI 1640 medium supplemented with 10% heat-inactivate fetal bovine serum, 1% pen-strep, and 0.2 U/ml insulin. A 25 μL aliquot of the compound/media mixture was added to cells, bringing the total volume in each well to 50 μL. An equal volume of DMSO without compound was used as a negative control. After treatment, plates were spun at 300×g for 30 seconds, then cultured at 37° C. with 5% CO2 for six days in a humidified tissue culture incubator.
On Day 6 of treatment, cell viability was quantified with CellTiter-Glo 2.0 reagent (Promega). Plates were equilibrated to room temperature for 30 minutes, then 25 μL of CellTiter-Glo 2.0 reagent was added to cells, bringing the total volume in each well to 75 μL. After reagent was added, plates were mixed on a shaker for two minutes at 500 rpm and then incubated at room temperature for 10 minutes. Following incubation, plates were spun at 3,000×g for 30 seconds, sealed with an optical adhesive cover, and luminescence readings were measured with an EnVision Plate Reader.
Data was normalized to 0 luminescence for baseline. A four-parameter, non-linear regression curve fit was applied to dose-response data in GraphPad Prism data analysis software to determine the half maximal growth inhibitory concentration (GI50) for each compound.
(Cellular ATP, detected with luciferase, serves as a proxy for viable cell number.)

[4] abbreviates: Table 7-A, T-Rex 293 cells with doxycycline (increased ERα expression), CellTiter-Glo, read-out: (+) Dox GI50.
Where [5] appears, read: Table 7-A, T-Rex 293 cells without doxycycline (lacking increased ERα expression), CellTiter-Glo, read-out: (−) Dox GI50.

Read-outs that look alike come from different tables or passages of the source.

The GI50 is the concentration that inhibits growth by half. In the case of `Cc1sc2c(c1C)C(c1ccc(N3CC(O)(CN4CCN(CC5CN(c6ccc([C@@H]7c8ccc(O)cc8CC[C@@H]7c7ccccc7)cc6)C5)CC4)C3)cc1)=N[C@@H](Cc1ncco1)c1nnc(C)n1-2` [III-181], the GI50 in test [1] (setting [4]) is under 50 nM; in test [2] (setting [5]), 50 to 500 nM; in test [3] it was under 50 nM.

In the case of `Cc1sc2c(c1C)C(c1ccc(N3CCC(O)(CN4CCN(c5ccc([C@H]6c7ccc(O)cc7CC[C@H]6c6cc(F)ccc6F)c(F)c5)CC4)CC3)cc1)=N[C@@H](C)c1nnc(C)n1-2` [III-273], the GI50 in test [1] (setting [4]), in test [2] (setting [5]) and in test [3] was 50 to 500 nM in each case.

For `Cc1sc2c(c1C)C(c1ccc(N3CC(CC4(O)CCN(c5ccc([C@@H]6c7ccc(O)cc7CC[C@@H]6c6ccccc6)cc5)CC4)C3)cc1)=N[C@@H](Cc1ncco1)c1nnc(C)n1-2` [III-178], the concentration for 50% growth inhibition (GI50) in test [1] (setting [4]) was under 50 nM; in test [2] (setting [5]), 50 to 500 nM; in test [3], under 50 nM.

In the case of `Cc1sc2c(c1C)C(c1ccc(N3CC[C@@H](CNCCOc4ccc([C@@H]5c6ccc(O)cc6CC[C@@H]5c5ccccc5)cc4)C3)cc1)=NC(Cc1ncco1)c1nnc(C)n1-2` (stereo partly drawn) [III-61], the GI50 is under 50 nM in test [1] (setting [4]), 50 to 500 nM in test [2] (setting [5]) and under 50 nM in test [3].

As to `CC1=C(c2c(F)cc(F)cc2F)[C@@H](c2ccc(OCCN3CCCC4(CCN(c5ccc(C6=N[C@@H](C)c7nnc(C)n7-c7sc(C)c(C)c76)cc5)CC4)C3)cc2)Oc2ccc(O)cc21` [V-4], the GI50 in test [1] (setting [4]) was 500 to 2500 nM; in test [2] (setting [5]) it was 500 to 2500 nM; in test [3] it was 50 to 500 nM.

Turning to `Cc1sc2c(c1C)C(c1ccc(CC3CC4(CCN(c5ccc([C@H]6c7ccc(O)cc7CC[C@H]6c6ccccc6)cc5)CC4)C3)cc1)=N[C@@H](C)c1nnc(C)n1-2` [III-15], the GI50 in test [1] (setting [4]), in test [2] (setting [5]) and in test [3] was 500 to 2500 nM each time.

Turning to `Cc1sc2c(c1C)C(c1ccc(N3CCC(O)(CN4CCN(c5ccc([C@H]6c7ccc(O)cc7CC[C@H]6c6ccc(F)cc6)cc5)CC4)CC3)cc1)=N[C@@H](C)c1nnc(C)n1-2` [III-184], the GI50 in test [1] (setting [4]) is under 50 nM; in test [2] (setting [5]) it was 50 to 500 nM; in test [3], 50 to 500 nM.

For the compound `Cc1sc2c(c1C)C(c1ccc(N3CCN(CC4CCN(c5ccc([C@@H]6c7ccc(O)cc7CC[C@@H]6c6ccccc6)cc5)CC4)CC3)cc1)=N[C@@H](Cn1cccn1)c1nnc(C)n1-2` [III-215], the figures for the GI50 in test [1] (setting [4]), in test [2] (setting [5]) and in test [3] were under 50 nM, over 2500 nM and under 50 nM, respectively.

In the case of `Cc1sc2c(c1C)C(c1ccc(N3CCC(O)(CN4CCN(c5ccc([C@@H]6c7ccc(O)cc7CC[C@@H]6c6ccc(F)cc6F)cc5)CC4)CC3)cc1)=N[C@H](Cc1ncco1)c1nnc(C)n1-2` [III-193], the GI50 in test [1] (setting [4]) fell in the range of 50 to 500 nM; in test [2] (setting [5]), 500 to 2500 nM; in test [3] it was 50 to 500 nM.

As for `Cc1sc2c(c1C)C(c1ccc(N3CCC(CN4CCN(c5ccc(C6=C(c7ccccc7)CCCc7cc(O)ccc76)cc5)CC4)CC3)cc1)=N[C@@H](C)c1nnc(C)n1-2` [IV-39], the GI50 in test [1] (setting [4]) is under 50 nM; in test [2] (setting [5]), over 2500 nM; in test [3] it was 50 to 500 nM.

Take `Cc1sc2c(c1C)C(c1ccc(N3CCC4(CC3)CCN(c3ccc([C@@H]5c6ccc(O)cc6CC[C@@H]5c5ccccc5)cc3)CC4)cc1)=N[C@@H](C)c1nnc(C)n1-2` [III-116]: the results for the GI50 in test [1] (setting [4]), in test [2] (setting [5]) and in test [3] were over 2500 nM, over 2500 nM and 500 to 2500 nM, respectively.

Consider `Cc1sc2c(c1C)C(c1ccc(N3CCC(O)(CN4CCN(c5cc(F)c([C@H]6c7ccc(O)cc7CC[C@H]6c6ccccc6)c(F)c5)CC4)CC3)cc1)=N[C@H](Cc1ncco1)c1nnc(C)n1-2` [III-195], for which the results for the GI50 in test [1] (setting [4]), in test [2] (setting [5]) and in test [3] were over 2500 nM, over 2500 nM and 500 to 2500 nM, respectively.

For the compound `Cc1sc2c(c1C)C(c1ccc(N3CCC(CN4CCN(c5ccc(C6=C(c7ccc(Cl)cc7Cl)CCCc7cc(C(=O)O)ccc76)cc5)CC4)CC3)cc1)=N[C@@H](C)c1nnc(C)n1-2` [IV-11], the GI50 in test [1] (setting [4]) is under 50 nM; in test [2] (setting [5]) it was 500 to 2500 nM; in test [3], 50 to 500 nM.

Regarding `Cc1sc2c(c1C)C(c1ccc(N3CCC(CN4CCN(c5ccc([C@H]6c7ccc(O)cc7CC[C@H]6c6ccccc6)cn5)CC4)CC3)cc1)=N[C@@H](Cc1ncco1)c1nnc(C)n1-2` [III-125], the GI50 is under 50 nM in test [1] (setting [4]), 50 to 500 nM in test [2] (setting [5]) and 50 to 500 nM in test [3].

Take `Cc1sc2c(c1C)C(c1ccc(C3CN(CC4(O)CCN(CC5CN(c6ccc(C7=C(c8ccccc8)CCCc8cc(C(=O)O)ccc87)cc6)C5)CC4)C3)cc1)=N[C@@H](C)c1nnc(C)n1-2` [IV-46]: the GI50 is under 50 nM in test [1] (setting [4]), 500 to 2500 nM in test [2] (setting [5]) and 50 to 500 nM in test [3].

On to `Cc1sc2c(c1C)C(c1ccc(C#CC3CC4(CCN(CCOc5ccc(C(=O)c6c(-c7ccc(O)cc7)sc7cc(O)ccc67)cc5)CC4)C3)cc1)=N[C@@H](Cc1ncco1)c1nnc(C)n1-2` [I-20, (S)-(6-hydroxy-2-(4-hydroxyphenyl)benzo[b]thiophen-3-yl)(4-(2-(2-((4-(2,3,9-trimethyl-6-(oxazol-2-ylmethyl)-6H-thieno[3,2-f][1,2,4]triazolo[4,3-a][1,4]diazepin-4-yl)phenyl)ethynyl)-7-azaspiro[3.5]nonan-7-yl)ethoxy)phenyl) methanone], for which the GI50 in test [1] (T-Rex 293 cells with doxycycline-induced ERα expression, CellTiter-Glo 2.0, read-out: (+) Dox TRex ERa (GI50)) is under 50 nM; in test [2] (T-Rex 293 cells without doxycycline, CellTiter-Glo 2.0, read-out: (−) Dox TRex ERa (GI50)), under 50 nM; in test [3], under 50 nM.

For the compound `Cc1sc2c(c1C)C(c1ccc(N3CC(CN4CCN(CC5CN(c6ccc(C7=C(c8ccc(Cl)cc8Cl)CCCc8cc(C(=O)O)ccc87)cc6)C5)CC4)C3)cc1)=N[C@@H](C)c1nnc(C)n1-2` [IV-8], the figures for the GI50 in test [1] (setting [4]), in test [2] (setting [5]) and in test [3] were under 50 nM, 500 to 2500 nM and under 50 nM, respectively.

(Values after patent publication US12558428B2, “Heterobifunctional compounds and their use in treating disease” (Halda Therapeutics OpCo, Inc., priority 2024, dated 2026).)
